One test deals with E. coli DNA gyrase (Escherichia coli, UniProt P0AES6). Put plainly: DNA gyrase supercoiling plate assay. The format is biochemical. The conditions noted are these: IC50 E. coli gyrase, supercoiling assay.
Another test deals with S. aureus DNA gyrase (Staphylococcus aureus, UniProt P0A0K8). Nature of the test: DNA gyrase supercoiling plate assay. The format is biochemical. The conditions noted are these: read-out: RA (residual activity) S. aureus gyrase.
The next test has as its target E. coli topoisomerase IV (Escherichia coli, UniProt P20083). Put plainly: topoisomerase IV relaxation plate assay. It is filed as biochemical.
For test [1], the target named is S. aureus topoisomerase IV (Staphylococcus aureus, UniProt P0C1S7). Nature of the test: topoisomerase IV relaxation plate assay. The format is biochemical. The conditions noted are these: read-out: RA (residual activity) S. aureus topo IV.
In test [2] the test system is S. aureus ATCC 29213. Nature of the test: MIC, broth microdilution. The format is cell-based, Staphylococcus aureus. The conditions noted are these: for MIC: Staphylococcus aureus, ATCC29213, read-out: MIC S. aureus ATCC 29213, broth microdilution. On the technique in general: In broth dilution the organism is exposed to a series of concentrations in liquid medium.
The test system of a further test is E. faecium ATCC 35667. Put plainly: MIC, broth microdilution. It is filed as cell-based.
The next test has as its system E. coli ATCC 25922. Put plainly: MIC, broth microdilution. It is filed as cell-based. The conditions noted are these: Escherichia coli, ATCC25922, read-out: MIC E. coli ATCC 25922.
A further test relates to P. aeruginosa ATCC 27853. Nature of the test: MIC, broth microdilution. The format is cell-based. The conditions noted are these: Pseudomonas aeruginosa, ATCC27853, read-out: MIC P. aeruginosa ATCC 27853.
The test system of a further test is A. baumannii ATCC 19606. Put plainly: MIC, broth microdilution. The format is cell-based. The conditions noted are these: Acinetobacter baumannii, ATCC19606, read-out: MIC A. baumannii ATCC 19606.
Test [3] deals with K. pneumoniae ATCC 700603. Put plainly: MIC, broth microdilution. The format is cell-based. The conditions noted are these: Klebsiella pneumoniae, ATCC700603, read-out: MIC K. pneumoniae ATCC 700603.
A further test deals with K. aerogenes ATCC 13408. Put plainly: MIC, broth microdilution. It is filed as cell-based. The conditions noted are these: Klebsiella aerogenes, ATCC13408, read-out: MIC K. aerogenes ATCC 13408.
Test [4] addresses human DNA topoisomerase IIα (Homo sapiens, UniProt P11388). Put plainly: human DNA topoisomerase IIα inhibition. The format is biochemical.
Test [5] deals with S. aureus ATCC 43300 (MRSA). Nature of the test: MIC, broth microdilution. The format is cell-based. The conditions noted are these: Staphylococcus aureus, ATCC43300|MRSA, read-out: MIC S. aureus ATCC 43300 (MRSA).
For another test, the system named is E. faecalis ATCC 29212. Nature of the test: MIC, broth microdilution. It is filed as cell-based. The conditions noted are these: Enterococcus faecalis, ATCC29212, read-out: MIC E. faecalis ATCC 29212.
In a further test the test system is A. baumannii ATCC 17978. Put plainly: MIC, broth microdilution. The format is cell-based. The conditions noted are these: Acinetobacter baumannii, ATCC17978, read-out: MIC A. baumannii ATCC 17978.
Test [6] concerns K. pneumoniae ATCC 10031. Nature of the test: MIC, broth microdilution. It is filed as cell-based. The conditions noted are these: Klebsiella pneumoniae, ATCC10031, read-out: MIC K. pneumoniae ATCC 10031.
For test [7], the system named is E. spp. cloacae ATCC 13047. Put plainly: MIC, broth microdilution. It is filed as cell-based. The conditions noted are these: read-out: MIC E. spp. cloacae ATCC 13047.
The next test relates to MRSA clinical isolate-1. Put plainly: MIC against fluoroquinolone-resistant clinical isolate. The format is cell-based. The conditions noted are these: Staphylococcus aureus, read-out: MIC MRSA clinical isolate-1.
A further test has as its system MRSA clinical isolate-2. Described as above. The conditions noted are these: Staphylococcus aureus, read-out: MIC MRSA clinical isolate-2. The format is cell-based.
Another test relates to K. pneumoniae NCTC 13440. The test is described as above. The format is cell-based. The conditions noted are these: Klebsiella pneumoniae, NCTC13440, read-out: MIC K. pneumoniae NCTC 13440.
The subject of a further test is K. pneumoniae SE K13. The description is as above. The format is cell-based. The conditions noted are these: Klebsiella pneumoniae, SEK13, read-out: MIC K. pneumoniae SE K13.
For the next test, the system named is K. pneumoniae SE K14. The test is described as above. It is filed as cell-based. The conditions noted are these: Klebsiella pneumoniae, SEK14, read-out: MIC K. pneumoniae SE K14.
Another test relates to K. pneumoniae K9–K25. The description is as above. It is filed as cell-based. The conditions noted are these: Klebsiella pneumoniae, read-out: MIC K. pneumoniae K9–K25.
Test [8] relates to S. aureus ATCC 29213. Put plainly: spontaneous frequency of resistance. It is filed as cell-based, Staphylococcus aureus.
Test [9] concerns K. pneumoniae ATCC 10031. Nature of the test: spontaneous frequency of resistance. The format is cell-based, Klebsiella pneumoniae.
The target of a further test is A. baumannii DNA gyrase (Acinetobacter baumannii, UniProt A0ABX6CA01). Nature of the test: DNA gyrase supercoiling assay. The format is biochemical.
In a further test the target is P. aeruginosa DNA gyrase (Pseudomonas aeruginosa, UniProt Q9I7C2). Put plainly: DNA gyrase supercoiling assay. It is filed as biochemical.
Test [10] has as its system S. aureus ATCC 29213 adapted lines. Nature of the test: MIC of adapted lines. The conditions noted are these: colonies from frequency of resistance plates.
Where [11] appears, read: read-out: RA (residual activity) Human topo IIα.

Converted amounts (≈) assume the structure as drawn.

We go through six compounds from publication PMC11378028 (RSC Advances, 2024).

Chain of human DNA topoisomerase IIα (P11388 whole entry): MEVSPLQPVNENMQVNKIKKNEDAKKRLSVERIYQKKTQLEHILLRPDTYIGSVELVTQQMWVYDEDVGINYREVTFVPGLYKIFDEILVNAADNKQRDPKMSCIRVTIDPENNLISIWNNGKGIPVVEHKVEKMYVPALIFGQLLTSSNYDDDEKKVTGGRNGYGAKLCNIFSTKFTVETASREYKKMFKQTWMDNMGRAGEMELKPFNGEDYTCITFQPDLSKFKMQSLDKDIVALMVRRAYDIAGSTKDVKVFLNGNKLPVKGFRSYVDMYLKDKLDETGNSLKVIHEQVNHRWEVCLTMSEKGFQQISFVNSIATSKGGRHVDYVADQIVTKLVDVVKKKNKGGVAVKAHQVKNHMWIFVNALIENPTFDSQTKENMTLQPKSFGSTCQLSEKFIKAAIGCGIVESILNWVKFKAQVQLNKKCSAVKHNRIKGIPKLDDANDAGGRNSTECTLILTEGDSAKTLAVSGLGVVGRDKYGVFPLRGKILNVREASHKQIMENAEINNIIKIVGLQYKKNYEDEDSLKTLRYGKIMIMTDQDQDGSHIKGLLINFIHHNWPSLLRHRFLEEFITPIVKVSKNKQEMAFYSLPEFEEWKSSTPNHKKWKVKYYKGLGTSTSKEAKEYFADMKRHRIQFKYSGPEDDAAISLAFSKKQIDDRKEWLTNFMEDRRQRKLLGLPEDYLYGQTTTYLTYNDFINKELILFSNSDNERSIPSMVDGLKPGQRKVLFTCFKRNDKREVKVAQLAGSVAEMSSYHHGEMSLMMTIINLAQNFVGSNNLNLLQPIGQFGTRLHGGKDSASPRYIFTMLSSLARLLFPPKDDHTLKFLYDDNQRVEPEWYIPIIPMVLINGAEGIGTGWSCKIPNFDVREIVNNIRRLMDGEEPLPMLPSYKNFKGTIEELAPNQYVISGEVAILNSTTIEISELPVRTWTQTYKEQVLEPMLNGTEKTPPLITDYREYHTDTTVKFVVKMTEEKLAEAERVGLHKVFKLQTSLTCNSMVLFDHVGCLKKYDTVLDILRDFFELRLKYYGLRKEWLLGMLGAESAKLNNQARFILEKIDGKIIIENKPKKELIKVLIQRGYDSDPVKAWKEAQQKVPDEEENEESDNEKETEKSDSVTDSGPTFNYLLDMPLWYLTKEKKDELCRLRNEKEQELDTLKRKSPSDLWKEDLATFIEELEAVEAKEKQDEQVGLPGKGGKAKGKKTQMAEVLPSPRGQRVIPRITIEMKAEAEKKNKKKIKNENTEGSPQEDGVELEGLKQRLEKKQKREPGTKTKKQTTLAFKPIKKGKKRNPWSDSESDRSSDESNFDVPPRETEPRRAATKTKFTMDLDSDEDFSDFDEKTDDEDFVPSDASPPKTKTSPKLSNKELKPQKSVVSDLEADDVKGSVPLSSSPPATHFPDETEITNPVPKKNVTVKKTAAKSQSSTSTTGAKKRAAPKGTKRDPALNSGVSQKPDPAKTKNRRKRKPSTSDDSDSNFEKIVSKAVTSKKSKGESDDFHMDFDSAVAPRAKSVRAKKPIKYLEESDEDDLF
Chain of E. coli topoisomerase IV (P20083 whole entry): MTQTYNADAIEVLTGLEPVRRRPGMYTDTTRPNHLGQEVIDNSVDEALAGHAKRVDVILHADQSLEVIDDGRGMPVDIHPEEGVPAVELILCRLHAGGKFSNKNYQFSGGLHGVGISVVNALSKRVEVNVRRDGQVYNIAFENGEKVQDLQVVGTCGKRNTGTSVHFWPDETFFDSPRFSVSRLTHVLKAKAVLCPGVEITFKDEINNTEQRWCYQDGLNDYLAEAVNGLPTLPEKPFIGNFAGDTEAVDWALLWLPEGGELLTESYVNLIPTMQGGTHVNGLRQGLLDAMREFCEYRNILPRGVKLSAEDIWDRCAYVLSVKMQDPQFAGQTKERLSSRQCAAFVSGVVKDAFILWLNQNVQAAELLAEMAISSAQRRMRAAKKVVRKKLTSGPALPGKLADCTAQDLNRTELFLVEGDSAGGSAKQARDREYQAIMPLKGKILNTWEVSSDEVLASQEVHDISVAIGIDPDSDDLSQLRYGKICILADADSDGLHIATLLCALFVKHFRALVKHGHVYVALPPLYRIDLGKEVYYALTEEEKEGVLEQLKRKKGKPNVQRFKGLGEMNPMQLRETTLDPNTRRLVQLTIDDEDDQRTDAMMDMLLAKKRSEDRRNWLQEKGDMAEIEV
Chain of E. coli topoisomerase IV (P0AFI2 whole entry partner): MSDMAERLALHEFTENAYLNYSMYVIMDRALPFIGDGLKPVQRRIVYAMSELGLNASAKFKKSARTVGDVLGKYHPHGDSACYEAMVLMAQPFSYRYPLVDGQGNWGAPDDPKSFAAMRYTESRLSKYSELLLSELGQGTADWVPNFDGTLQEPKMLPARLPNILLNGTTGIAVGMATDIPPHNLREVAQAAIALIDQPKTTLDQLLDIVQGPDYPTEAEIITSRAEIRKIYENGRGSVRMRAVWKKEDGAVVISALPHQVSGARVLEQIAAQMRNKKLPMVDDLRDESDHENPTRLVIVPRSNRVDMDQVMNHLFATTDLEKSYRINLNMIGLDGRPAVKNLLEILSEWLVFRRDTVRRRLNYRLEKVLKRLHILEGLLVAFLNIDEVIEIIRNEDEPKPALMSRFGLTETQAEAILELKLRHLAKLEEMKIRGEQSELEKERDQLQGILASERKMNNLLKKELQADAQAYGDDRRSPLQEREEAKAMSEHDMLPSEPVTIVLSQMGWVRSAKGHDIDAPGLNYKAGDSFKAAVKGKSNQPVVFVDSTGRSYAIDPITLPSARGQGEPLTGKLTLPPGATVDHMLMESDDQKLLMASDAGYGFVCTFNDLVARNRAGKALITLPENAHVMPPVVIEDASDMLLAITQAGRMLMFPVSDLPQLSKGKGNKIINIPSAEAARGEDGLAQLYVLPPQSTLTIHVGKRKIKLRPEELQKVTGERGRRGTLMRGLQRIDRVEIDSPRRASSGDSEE
Chain of S. aureus topoisomerase IV (P0C1S7 whole entry): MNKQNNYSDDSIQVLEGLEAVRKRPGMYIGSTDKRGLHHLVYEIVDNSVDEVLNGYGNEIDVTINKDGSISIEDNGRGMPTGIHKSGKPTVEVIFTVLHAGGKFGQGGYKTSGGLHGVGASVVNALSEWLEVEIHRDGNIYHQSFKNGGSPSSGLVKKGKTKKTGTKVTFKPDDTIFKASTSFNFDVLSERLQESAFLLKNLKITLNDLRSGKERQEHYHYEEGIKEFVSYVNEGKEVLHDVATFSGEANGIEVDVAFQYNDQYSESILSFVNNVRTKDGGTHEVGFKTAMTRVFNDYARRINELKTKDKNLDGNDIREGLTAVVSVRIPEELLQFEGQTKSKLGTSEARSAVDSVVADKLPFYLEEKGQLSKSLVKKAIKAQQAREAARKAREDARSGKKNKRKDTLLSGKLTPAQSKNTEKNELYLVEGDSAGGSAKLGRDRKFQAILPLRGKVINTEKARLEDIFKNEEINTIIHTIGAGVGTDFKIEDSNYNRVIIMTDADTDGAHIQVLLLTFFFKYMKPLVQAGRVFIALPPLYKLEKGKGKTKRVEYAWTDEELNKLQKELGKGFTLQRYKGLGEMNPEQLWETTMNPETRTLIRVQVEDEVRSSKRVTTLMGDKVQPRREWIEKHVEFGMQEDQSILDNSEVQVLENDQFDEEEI
Chain of S. aureus topoisomerase IV (P0C1U9 whole entry partner): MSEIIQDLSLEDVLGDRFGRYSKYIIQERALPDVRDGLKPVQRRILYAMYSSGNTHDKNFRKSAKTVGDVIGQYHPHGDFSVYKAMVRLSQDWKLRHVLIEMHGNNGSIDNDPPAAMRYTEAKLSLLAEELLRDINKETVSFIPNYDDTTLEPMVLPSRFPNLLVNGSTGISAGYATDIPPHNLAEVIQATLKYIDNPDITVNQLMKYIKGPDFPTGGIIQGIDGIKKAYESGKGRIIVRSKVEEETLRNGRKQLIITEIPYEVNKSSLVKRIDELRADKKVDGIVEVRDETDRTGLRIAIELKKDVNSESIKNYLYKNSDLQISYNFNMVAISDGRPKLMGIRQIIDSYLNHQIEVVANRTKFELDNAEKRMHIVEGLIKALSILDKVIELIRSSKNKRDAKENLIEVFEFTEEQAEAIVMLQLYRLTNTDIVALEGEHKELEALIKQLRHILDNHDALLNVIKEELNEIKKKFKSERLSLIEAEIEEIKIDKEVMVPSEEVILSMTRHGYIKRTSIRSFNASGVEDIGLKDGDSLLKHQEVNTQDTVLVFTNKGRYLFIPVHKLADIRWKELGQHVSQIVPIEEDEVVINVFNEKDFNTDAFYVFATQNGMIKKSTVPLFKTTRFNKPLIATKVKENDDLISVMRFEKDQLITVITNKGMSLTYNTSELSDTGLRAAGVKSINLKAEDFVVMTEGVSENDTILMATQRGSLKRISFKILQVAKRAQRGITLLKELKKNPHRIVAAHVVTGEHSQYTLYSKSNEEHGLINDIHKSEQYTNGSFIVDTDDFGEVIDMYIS

Take `Cc1[nH]c(C(=O)Nc2ccc(C(=O)O)cc2N2CCN(C(=O)OC(C)(C)C)CC2)c(Cl)c1Cl` [Compound 18a, 3-(4-(tert-Butoxycarbonyl)piperazin-1-yl)-4-(3,4-dichloro-5-methyl-1H-pyrrole-2-carboxamido)benzoic acid]: the 50% inhibitory concentration (IC50) – broadly, the concentration that gives 50% inhibition – against E. coli DNA gyrase turned out to be 159 nM. For the same compound, the figures for the remaining activity at 1 µM (at S. aureus DNA gyrase; on E. coli topoisomerase IV (read-out: RA (residual activity) E. coli topo IV); in test [1]) were 54%, 99% and 21%, respectively. The MIC (commonly the lowest concentration that inhibits growth of the organism) with S. aureus ATCC 29213 [2] was 4 to 32 µg/mL (≈ 8.04 to 64.3 µM); in the test on E. coli ATCC 25922, above 32 µg/mL; with P. aeruginosa ATCC 27853 it was above 32 µg/mL; in the test on A. baumannii ATCC 19606 it was above 32 µg/mL; in test [3] it was above 32 µg/mL; in the test on K. aerogenes ATCC 13408 it was above 32 µg/mL. The “MIC S. aureus ATCC 29213” value with S. aureus ATCC 29213 [2] (broth microdilution) worked out at 4 µg/mL (≈ 8.04 µM). The “MIC E. faecium ATCC 35667” value in the test on E. faecium ATCC 35667 turned out to be 16 µg/mL (≈ 32.2 µM).

For the compound `Cc1[nH]c(C(=O)Nc2ccc(C(=O)O)cc2N2CCCC(CN)C2)c(Cl)c1Cl.Cl` (stereo not shown) [Compound 20i, (1-(5-Carboxy-2-(3,4-dichloro-5-methyl-1H-pyrrole-2-carboxamido)phenyl)piperidin-3-yl)methanaminium chloride], the IC50 worked out at 6.34 nM against E. coli DNA gyrase and 143 nM against E. coli topoisomerase IV. In addition, the remaining activity at 0.1 µM on S. aureus DNA gyrase was determined as 28%. In addition, the remaining activity at 1 µM in test [1] was found to be 0%. In [4] (setting [11]), the remaining activity at 100 µM came to 28%. Besides, the “MIC E. faecium ATCC 35667” value in the test on E. faecium ATCC 35667 came out at 32 µg/mL. In addition, the MIC (in the test with E. coli ATCC 25922; with P. aeruginosa ATCC 27853; in the test on A. baumannii ATCC 19606; in test [3]; in the test on K. aerogenes ATCC 13408) was above 32 µg/mL each time.

In turn, `Cc1[nH]c(C(=O)Nc2ccc(-c3n[nH]c(=O)o3)cc2N2CCOCC2)c(Cl)c1Cl` [Compound 22e, 3,4-Dichloro-5-methyl-N-(2-morpholino-4-(5-oxo-4,5-dihydro-1,3,4-oxadiazol-2-yl)phenyl)-1H-pyrrole-2-carboxamide] returned an IC50 at E. coli topoisomerase IV of 1230 nM. In test [4] (setting [11]), the remaining activity at 100 µM was 93%. The MIC in the test on S. aureus ATCC 29213 [2] was 0.25 µg/mL (≈ 0.57 µM); in test [5], 0.25 µg/mL (≈ 0.57 µM); in the test with E. faecalis ATCC 29212 it was 0.125 µg/mL (≈ 0.285 µM); with E. coli ATCC 25922 it was above 64 µg/mL; in the test on P. aeruginosa ATCC 27853, above 64 µg/mL; in the test with A. baumannii ATCC 17978, above 64 µg/mL. In addition, the MIC in the test with K. pneumoniae ATCC 10031 [6] is above 64 µg/mL; in test [7], above 64 µg/mL; with MRSA clinical isolate-1, 0.5 µg/mL (≈ 1.14 µM); with MRSA clinical isolate-2, 0.5 µg/mL (≈ 1.14 µM); in the test on K. pneumoniae NCTC 13440, above 64 µg/mL; with K. pneumoniae SE K13 it was above 64 µg/mL. For the same compound, the MIC in the test with K. pneumoniae SE K14 and with K. pneumoniae K9–K25 was above 64 µg/mL throughout.

Consider `Cc1[nH]c(C(=O)Nc2ccc(-c3n[nH]c(=O)o3)cc2N2CCNCC2)c(Cl)c1Cl.Cl` [Compound 23a, 4-(2-(3,4-Dichloro-5-methyl-1H-pyrrole-2-carboxamido)-5-(5-oxo-4,5-dihydro-1,3,4-oxadiazol-2-yl)phenyl)piperazin-1-ium chloride], for which, in test [4] (setting [11]), the remaining activity at 100 µM amounted to 86%. The MIC in the test on S. aureus ATCC 29213 [2] was 2 µg/mL; in test [5], 4 µg/mL; with E. faecalis ATCC 29212, 0.5 µg/mL; in the test with E. coli ATCC 25922, above 64 µg/mL; with P. aeruginosa ATCC 27853, above 64 µg/mL; in the test on A. baumannii ATCC 17978, above 64 µg/mL. Further, the MIC in the test on K. pneumoniae ATCC 10031 [6] is 0.25 µg/mL; in [7], above 64 µg/mL; in the test with MRSA clinical isolate-1, 4 µg/mL; in the test on MRSA clinical isolate-2 it was 2 µg/mL; in the test with K. pneumoniae NCTC 13440, above 64 µg/mL; with K. pneumoniae SE K13 it was above 64 µg/mL. Further, the MIC with K. pneumoniae SE K14 and in the test with K. pneumoniae K9–K25 was above 64 µg/mL throughout. For the same compound, the “resistance-proneness compared to novobiocin” value with S. aureus ATCC 29213 [8] and in the test on K. pneumoniae ATCC 10031 [9] was “significantly less resistance-prone compared to novobiocin” in each case.

For `Cc1[nH]c(C(=O)Nc2ccc(-c3n[nH]c(=O)o3)cc2N2CC[C@H](N)C2)c(Cl)c1Cl.Cl` [Compound 23b, (S)-1-(2-(3,4-Dichloro-5-methyl-1H-pyrrole-2-carboxamido)-5-(5-oxo-4,5-dihydro-1,3,4-oxadiazol-2-yl)phenyl)pyrrolidin-3-aminium chloride], the values for the half-maximal inhibitory concentration (IC50) (in test [4]; against A. baumannii DNA gyrase; against P. aeruginosa DNA gyrase) were 86300 nM, 15.3 nM and 3.63 nM, respectively. Further, the MIC was 1 µg/mL with S. aureus ATCC 29213 [2]; 2 µg/mL in test [5]; 1 µg/mL in the test on E. faecalis ATCC 29212; 32 µg/mL with P. aeruginosa ATCC 27853; 0.0625 µg/mL with K. pneumoniae ATCC 10031 [6]; above 32 µg/mL in test [3]. The MIC is 32 µg/mL in [7]; above 32 µg/mL with K. aerogenes ATCC 13408; 4 µg/mL with MRSA clinical isolate-1; 2 µg/mL in the test with MRSA clinical isolate-2; above 64 µg/mL in the test with K. pneumoniae NCTC 13440; above 64 µg/mL in the test with K. pneumoniae SE K14. The MIC with K. pneumoniae K9–K25 was above 64 µg/mL.

Take `Cc1[nH]c(C(=O)Nc2ccc(-c3n[nH]c(=O)o3)cc2N2CCC[C@H](N)C2)c(Cl)c1Cl.Cl` [Compound 23c, (S)-1-(2-(3,4-Dichloro-5-methyl-1H-pyrrole-2-carboxamido)-5-(5-oxo-4,5-dihydro-1,3,4-oxadiazol-2-yl)phenyl)piperidin-3-aminium chloride]: the IC50 against E. coli topoisomerase IV stood at 448 nM. The remaining activity at 50 µM in test [4] (setting [11]) was found to be 90%. Also, the MIC was 2 µg/mL in the test on S. aureus ATCC 29213 [2]; 2 µg/mL in test [5]; 2 µg/mL in the test with E. faecalis ATCC 29212; 4 µg/mL with A. baumannii ATCC 19606; 0.25 µg/mL in the test on K. pneumoniae ATCC 10031 [6]; above 32 µg/mL in test [3]. In addition, the MIC in [7] is above 64 µg/mL; in the test on K. aerogenes ATCC 13408, above 32 µg/mL; with MRSA clinical isolate-1, 4 µg/mL; with MRSA clinical isolate-2, 2 µg/mL; with K. pneumoniae NCTC 13440, above 64 µg/mL; with K. pneumoniae SE K13 it was 32 µg/mL. Further, the MIC in the test on K. pneumoniae SE K14 and in the test on K. pneumoniae K9–K25 was above 64 µg/mL in each case. Moreover, the “resistance-proneness compared to novobiocin” value in the test with S. aureus ATCC 29213 [8] and in the test on K. pneumoniae ATCC 10031 [9] was “significantly less resistance-prone compared to novobiocin” each time. Besides, the “change in MIC values compared to the ancestor” value in test [10] worked out at 4 fold.
